Source: patent US20200338158A1, “Therapeutic Drug for Non-Alcoholic Fatty Liver Disease” (Shanghai Hep Pharmaceutical Co., Ltd., priority 2017, published 2020)
Entries after “also recorded” stand apart in the source; their conditions may differ.

How the values were obtained:
Format in all cases: in vivo
C57BL6 mice [1] = experiment: Quantitative CT of body fat deposition, mouse NASH model; details: week 16; for subcutaneous fat (CT): vs model group
Text: (§1) In this example, a mouse nonalcoholic steatohepatitis (NASH) model was used to evaluate the effect of hepalatide (L47) on pathological changes and metabolism level of NASH, and to determine whether L47 can improve the pathological changes of NASH, so as to provide reference for pharmacodynamic evaluation of L47 before clinical treatment.
Quantitative CT was used to locate and quantify subcutaneous, visceral and brown fat in mice at week 16.

C57BL6 mice [2] = experiment: Liver histology (HE, Oil Red O, Masson, TUNEL staining), mouse NASH model; details: for liver Masson staining (fibrous cords) / liver Oil Red O staining (fat accumulation) / liver Masson staining (fibrous depositions): vs model group
Description: as §1
At week 8 and week 16, hematoxylin eosin (HE) staining, trichrome staining (Masson staining), Oil Red 0 staining and apoptosis (TUNEL) staining were performed on the liver tissue sections of mice.

C57BL6 mice [3] = experiment: Body weight and general observation of abdominal fat, mouse NASH model
Text: as §1
Each experimental group was provided with sufficient feed and water daily with free diet, and water was changed twice a week for sugar water-added group, and the remaining amount of feed was weighed and added to 150 g each week for each group in addition to the normal control group, and body weight of mice was weighed each week for each group.
(§2) At week 8 and week 16, liver was separated by dissection after anesthesia and blood collection, and pathological changes of liver tissues and accumulation of abdominal fat were grossly observed by the naked eye.

C57BL6 mice [4] = experiment: Mouse NASH model, overall conclusions at week 8 and week 16
Text: as §1
4.1.1 Normal control group (Control): common block feed+common water, 14 mice in total, wherein 6 mice were sacrificed at week 8, and 8 mice were sacrificed at week 16.
(§3) 4.1.2 Model group (HFC-F/G): high fat feed+high sugar water, 9 mice in total, wherein 3 mice were sacrificed at week 8, and 6 mice were sacrificed at week 16.
(§4) 4.1.3 Low dose group 1 (HFC-F/G+HL1): high fat feed+high sugar water+L47 20 mg/kg (10 mg/kg*2/d, i.e. once in the morning and once in the afternoon), 10 mice in total, wherein 3 mice were sacrificed at week 8, and 7 mice were sacrificed at week 16.
(§5) 4.1.4 High dose group 1 (HFC-F/G+HH1): high fat feed+high sugar water+L47 60 mg/kg (30 mg/kg*2/d, i.e. once in the morning and once in the afternoon), 10 mice in total, wherein 3 mice were sacrificed at week 8, and 7 mice were sacrificed at week 16.
(§6) 4.1.5 Low dose group 2 (HFC-F/G+HL2): high fat feed+high sugar water+L47 20 mg/kg (10 mg/kg*2/d, i.e. once in the morning and once in the afternoon, with pharmacologic intervention started 8 weeks after initiation of the experiment), 5 mice in total, which are sacrificed after 16 weeks.
(§7) 4.1.6 High dose group 2 (HFC-F/G+HH2): high fat feed+high sugar water+L47 60 mg/kg (30 mg/kg*2/d, i.e. once in the morning and once in the afternoon, with pharmacologic intervention started 8 weeks after initiation of the experiment), 5 mice in total, which are sacrificed after 16 weeks.
The concentration of L47 in low dose group was 5 mg/ml; the concentration of L47 in high dose group was 10 mg/ml.
(§8) Route of administration: subcutaneous injection.

C57BL6 mice [5] = experiment: Glucose tolerance, fasting insulin and insulin resistance index, mouse NASH model; details: for blood glucose level in glucose tolerance test: treatment groups vs model group; for fasting serum insulin level / insulin resistance HOMA-RI level: vs model group
Text: As used herein, homeostatic model assessment (HOMA) index may refer HOMA-IR (quantifying the level of insulin resistance) index. The value of HOMA-IR can be calculated by following the formula of: HOMA-IR=[(blood glucose expressed in mmol/L)×(serum insulin expressed in mU/L)]/22.5.
as §1
5.2.3 Insulin ELISA Test Kit, Cat No.: EZRMI-13K, Millipore Company.
At week 8 and week 16, fasting blood glucose and glucose tolerance (subcutaneous injection of glucose: 2.5 mg/g, preparation concentration: 250 mg/ml) were measured in mice, blood glucose levels were measured at 0, 30, 60, 90 and 120 min after the injection of glucose, and insulin resistance index was calculated according to the fasting insulin level.

C57BL6 mice [6] = experiment: Liver weight and gross liver observation, mouse NASH model (high fat feed + high sugar water)
Text: as §1, §3, §4, §5, §6, §7, §8, §2

[7] = treatment groups vs model group
[8] = week 8, treatment groups (HL1, HH1)
[9] = week 16, HH1 (L47 30 mg/kg*2/d s.c. from start)
[10] = week 16, HH2 (L47 30 mg/kg*2/d s.c., started after 8 weeks)
[11] = week 16, HL1 (L47 10 mg/kg*2/d s.c. from start)
[12] = week 16, HL2 (L47 10 mg/kg*2/d s.c., started after 8 weeks)
[13] = overall conclusion, week 8 and week 16
[14] = overall conclusion, effect better as dose and administration duration increased
[15] = overall conclusion, in a short period of time, dose-dependent

## hepalatide [L47]
C57BL6 mice [1]; L47 treatment groups vs model group (conclusions)
  subcutaneous fat (quantitative body fat on CT scan): decreased significantly
C57BL6 mice [1]; [7]
  brown fat (CT): no significant difference
  visceral fat (CT): no significant difference; also recorded: no significant effect
C57BL6 mice [1]; HH1 (L47 30 mg/kg*2/d s.c. from start)
  subcutaneous fat (CT): decreased
C57BL6 mice [1]; HH2 (L47 30 mg/kg*2/d s.c., started after 8 weeks)
  subcutaneous fat (CT): decreased
C57BL6 mice [1]; HL2 (L47 10 mg/kg*2/d s.c., started after 8 weeks)
  subcutaneous fat (CT): decreased
C57BL6 mice [2]; week 8, low and high dose groups (HL1, HH1)
  liver HE staining (fat vacuoles, inflammatory cells): only less and smaller fat vacuoles were formed, with less inflammatory cells
C57BL6 mice [2]; [8]
  liver Oil Red O staining (fat droplet vacuoles): only smaller and less vacuoles
  liver TUNEL staining (apoptosis): effectively improved
C57BL6 mice [2]; week 8, treatment groups (HL1, HH1) vs model group, p<0.001, p<0.001
  TUNEL semi-quantitative counting (number of apoptotic bodies): significantly decreased
C57BL6 mice [2]; [9]
  liver HE staining (steatosis, inflammatory cell infiltration): severe steatosis
  liver TUNEL staining (apoptosis): no improvement
  liver Masson staining (fibrous cords): no significant difference
  liver Oil Red O staining (fat accumulation): only slightly reduced
C57BL6 mice [2]; [10]
  liver TUNEL staining (apoptosis): effectively improved
  liver Masson staining (fibrous depositions): decreased
  liver Oil Red O staining (fat accumulation): significantly reduced
C57BL6 mice [2]; week 16, HH2 (L47 30 mg/kg*2/d s.c., started after 8 weeks), p<0.01
  TUNEL semi-quantitative counting (number of apoptotic bodies): significantly decreased
C57BL6 mice [2]; [11]
  liver TUNEL staining (apoptosis): no improvement
  liver Masson staining (fibrous cords): no significant difference
  liver Oil Red O staining (fat accumulation): only slightly reduced
C57BL6 mice [2]; [12]
  liver TUNEL staining (apoptosis): effectively improved
  liver Masson staining (fibrous depositions): decreased
  liver Oil Red O staining (fat accumulation): significantly reduced
C57BL6 mice [2]; week 16, HL2 (L47 10 mg/kg*2/d s.c., started after 8 weeks), p<0.01
  TUNEL semi-quantitative counting (number of apoptotic bodies): significantly decreased
C57BL6 mice [2]; week 16, other groups (HL1, HL2, HH2)
  liver HE staining (steatosis, inflammatory response): slight steatosis and inflammatory response
C57BL6 mice [3]; week 8, L47 treatment groups vs model group
  body weight: significantly decreased
C57BL6 mice [3]; week 8, treatment groups
  abdominal fat deposition (general observation): significant effect
C57BL6 mice [3]; week 16, among each group
  abdominal fat deposition (general observation): no significant difference
C57BL6 mice [3]; week 16, low dose group 2
  body weight: decrease
C57BL6 mice [3]; week 16, treatment groups except low dose group 2, vs model group
  body weight: no significant difference
C57BL6 mice [4]; [13]
  levels of ALB, HDL and LDL: reduce
  levels of VLDL and ALP: no effect
C57BL6 mice [4]; [14]
  blood glucose and insulin level: effectively reduce
  insulin resistance: improve
C57BL6 mice [4]; [15]
  apoptosis (liver): improve
  fibrosis degree of liver: effectively reduce
  levels of ALT and AST: effectively reduce
C57BL6 mice [4]; overall conclusion, in a short period of time, dose-dependent, improvement reduced as treatment duration extended
  subcutaneous fat, liver fat and serum fat deposition: effectively reduce
C57BL6 mice [4]; short-term (8 weeks) co-administration or delayed administration, to various degrees
  liver fat accumulation, liver cell damage, insulin resistance and liver fibrosis: improve
C57BL6 mice [5]; week 8, 90 min after glucose, p<0.05, p<0.01
  blood glucose level in glucose tolerance test: significantly decreased
C57BL6 mice [5]; week 8, 120 min after glucose, p<0.01
  blood glucose level in glucose tolerance test: significantly decreased
C57BL6 mice [5]; week 16, 90 min after glucose
  blood glucose level in glucose tolerance test: decreasing trend
C57BL6 mice [5]; week 16, 120 min after glucose
  blood glucose level in glucose tolerance test: decreasing trend
C57BL6 mice [5]; week 16, treatment groups vs model group (conclusions)
  blood glucose: decreased
C57BL6 mice [5]; week 16, HH1 (L47 30 mg/kg*2/d s.c. from start), p<0.001
  fasting serum insulin level: significantly decreases
C57BL6 mice [5]; week 16, HH1 (L47 30 mg/kg*2/d s.c. from start), p<0.05
  insulin resistance HOMA-RI level: significantly decreases
C57BL6 mice [5]; [10]
  insulin resistance HOMA-RI level: decreasing trend
C57BL6 mice [5]; week 16, HH2 (L47 30 mg/kg*2/d s.c., started after 8 weeks), p<0.001
  fasting serum insulin level: significantly decreases
C57BL6 mice [5]; week 16, HL1 (L47 10 mg/kg*2/d s.c. from start), p<0.001
  fasting serum insulin level: significantly decreases
C57BL6 mice [5]; week 16, HL1 (L47 10 mg/kg*2/d s.c. from start), p<0.05
  insulin resistance HOMA-RI level: significantly decreases
C57BL6 mice [5]; [12]
  fasting serum insulin level: decreasing trend
  insulin resistance HOMA-RI level: no significant difference
C57BL6 mice [6]; treatment groups vs model group, week 8 implied
  general observation of liver change (color, weight): improved
C57BL6 mice [6]; week 8, each group (HL1, HH1)
  liver weight: no significant difference
C57BL6 mice [6]; week 16, low dose group 2 and high dose group 2 vs model group
  general observation of liver change (color, weight): liver colors tended to be normal
C57BL6 mice [6]; week 16, vs model group, HL2 (L47 10 mg/kg*2/d s.c., started after 8 weeks), p<0.05
  liver weight: decreased significantly
